The record followed here is patent US9474790B2, “Stable, protracted GLP-1/glucagon receptor co-agonists for medical use” (Novo Nordisk A/S, priority 2013, dated 2016).

As a reminder, the IC50 is the concentration that gives 50% inhibition.

The structures appear in SMILES notation. Numbered stars: 1 amine (or outer) side, 2 acyl side, 3 side chain; on linkers, the order of the positions; unused ones are H or OH. Bridge positions count the residues as written; N and C are the ends. Square brackets hold non-standard residues; d marks the D form. Side chains are listed from the residue outwards. Peptide text beside a SMILES is read from it. I, II: the chains in the order shown. * marks the point of attachment. C18 diacid = O=C(O)CCCCCCCCCCCCCCCCC(=O)*; γGlu = O=C(O)[C@H](CCC(=O)[*:2])N[*:1]; Ac4c = NC1(C(=O)O)CCC1; AEEA = NCCOCCOCC(=O)O; Aib = CC(C)(N)C(=O)O

The assay deals with T1, human GLP-1 receptor (Homo sapiens, UniProt P43220).
T1 construct: expressed in transfected cells; host or cells: BHK cells (parent BHKTS13), clone FCW467-12A/KZ10-1, with CRE luciferase
T1 sequence (P43220 24-463): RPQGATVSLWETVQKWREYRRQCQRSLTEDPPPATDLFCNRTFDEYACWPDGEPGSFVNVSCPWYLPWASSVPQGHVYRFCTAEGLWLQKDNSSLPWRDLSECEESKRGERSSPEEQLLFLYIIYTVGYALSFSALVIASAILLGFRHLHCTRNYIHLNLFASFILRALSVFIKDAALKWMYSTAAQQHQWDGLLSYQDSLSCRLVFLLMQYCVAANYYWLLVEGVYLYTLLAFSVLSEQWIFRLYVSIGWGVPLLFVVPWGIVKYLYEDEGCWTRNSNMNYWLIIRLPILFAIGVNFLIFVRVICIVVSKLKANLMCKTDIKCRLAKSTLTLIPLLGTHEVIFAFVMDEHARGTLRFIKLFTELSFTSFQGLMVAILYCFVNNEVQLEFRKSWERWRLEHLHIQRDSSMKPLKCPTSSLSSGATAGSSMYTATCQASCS
Kind of assay: GLP-1 receptor binding, 125I-GLP-1 displacement SPA on isolated membranes. The note with it: displacement of 125I-GLP-1 from membranes; read-out: IC50 GLP-1R. The gist of the method:
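Test derivatives, serially diluted, competed with 125I-GLP-1(7-36)NH2 for the human GLP-1 receptor on BHK membranes, read by WGA-bead scintillation proximity after 2 h at 30°C, pH 7.4 HEPES/EGTA/MgCl2 buffer. Final serum albumin was either ≤0.001% or 2.0%; IC50 from non-linear fit.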
(Displacement assays read how much labelled ligand stays bound in the presence of the test substance.)
For `CC(C)C[C@H](NC(=O)[C@H](Cc1c[nH]c2ccccc12)NC(=O)[C@H](C)NC(=O)[C@@H](NC(=O)[C@H](Cc1ccccc1)NC(=O)[C@H](CCC(=O)O)NC(=O)[C@H](CCCNC(=N)N)NC(=O)[C@H](C)NC(=O)[C@H](CCCNC(=N)N)NC(=O)[C@H](CCCNC(=N)N)NC(=O)[C@H](CO)NC(=O)[C@H](CCC(=O)O)NC(=O)[C@H](CC(C)C)NC(=O)[C@H](Cc1ccc(O)cc1)NC(=O)[C@H](CCCCN)NC(=O)[C@H](CO)NC(=O)[C@H](CC(C)C)NC(=O)[C@H](CC(=O)O)NC(=O)[C@H](CO)NC(=O)[C@@H](NC(=O)[C@H](Cc1ccccc1)NC(=O)[C@@H](NC(=O)CNC(=O)[C@H](Cc1c[nH]cn1)NC(=O)C(C)(C)NC(=O)[C@@H](N)Cc1c[nH]cn1)[C@@H](C)O)[C@@H](C)O)C(C)C)C(=O)N[C@@H](CC(C)C)C(=O)N[C@@H](CCCCNC(=O)CC[C@H](NC(=O)COCCOCCNC(=O)COCCOCCNC(=O)CC[C@H](NC(=O)CC[C@H](NC(=O)CCCCCCCCCCCCCCCCC(=O)O)C(=O)O)C(=O)O)C(=O)O)C(=O)N[C@H](C(N)=O)[C@@H](C)O` [Example 31, N^ε28-[(4S)-4-carboxy-4-[[2-[2-[2-[[2-[2-[2-[[(4S)-4-carboxy-4-[[(4S)-4-carboxy-4-(17-carboxyheptadecanoylamino)butanoyl]amino]butanoyl]amino]ethoxy]ethoxy]acetyl]amino]ethoxy]ethoxy]acetyl]amino]butanoyl]-[Aib2,His3,Leu10,Glu15,Arg20,Glu21,Ala24,Leu27, Lys28]-Glucagon amide] (H-H[Aib]HGTFTSDLSKYLESRRAREFVAWLLK([γGlu-AEEA-AEEA-γGlu-γGlu-C18 diacid])T-NH2; N-terminus assumed), the IC50 is 1.5 nM. Take `CC(C)C[C@H](NC(=O)[C@H](Cc1ccc(O)cc1)NC(=O)[C@H](CCCCN)NC(=O)[C@H](CO)NC(=O)[C@H](CC(C)C)NC(=O)[C@H](CC(=O)O)NC(=O)[C@H](CO)NC(=O)[C@@H](NC(=O)[C@H](Cc1ccccc1)NC(=O)[C@@H](NC(=O)CNC(=O)[C@H](Cc1c[nH]cn1)NC(=O)C(C)(C)NC(=O)[C@@H](N)Cc1c[nH]cn1)[C@@H](C)O)[C@@H](C)O)C(=O)N[C@@H](CCC(=O)O)C(=O)N[C@@H](CO)C(=O)N[C@@H](CCCNC(=N)N)C(=O)N[C@@H](CCCNC(=N)N)C(=O)N[C@@H](C)C(=O)N[C@@H](CCCNC(=N)N)C(=O)N[C@@H](CCC(=O)O)C(=O)N[C@@H](Cc1ccccc1)C(=O)N[C@H](C(=O)N[C@@H](CCC(N)=O)C(=O)N[C@@H](Cc1c[nH]c2ccccc12)C(=O)N[C@@H](CC(C)C)C(=O)N[C@@H](CC(C)C)C(=O)N[C@@H](CCCCNC(=O)CC[C@H](NC(=O)CC[C@H](NC(=O)COCCOCCNC(=O)COCCOCCNC(=O)CC[C@H](NC(=O)CCCCCCCCCCCCCCCCC(=O)O)C(=O)O)C(=O)O)C(=O)O)C(=O)N[C@H](C(N)=O)[C@@H](C)O)C(C)C` [Example 33, N^ε28-[(4S)-4-carboxy-4-[[(4S)-4-carboxy-4-[[2-[2-[2-[[2-[2-[2-[[(4S)-4-carboxy-4-(17-carboxyheptadecanoylamino)butanoyl]amino]ethoxy]ethoxy]acetyl]amino]ethoxy]ethoxy]acetyl]amino]butanoyl]amino]butanoyl]-[Aib2,His3,Leu10,Glu15,Arg20,Glu21,Leu27,Lys28]-Glucagon amide] (H-H[Aib]HGTFTSDLSKYLESRRAREFVQWLLK([γGlu-γGlu-AEEA-AEEA-γGlu-C18 diacid])T-NH2; N-terminus assumed): the IC50 is 0.6 nM. Consider `CC(C)C[C@H](NC(=O)[C@H](Cc1ccc(O)cc1)NC(=O)[C@H](CCCCN)NC(=O)[C@H](CO)NC(=O)[C@H](CC(C)C)NC(=O)[C@H](CC(=O)O)NC(=O)[C@H](CO)NC(=O)[C@@H](NC(=O)[C@H](Cc1ccccc1)NC(=O)[C@@H](NC(=O)CNC(=O)[C@H](Cc1c[nH]cn1)NC(=O)C(C)(C)NC(=O)[C@@H](N)Cc1c[nH]cn1)[C@@H](C)O)[C@@H](C)O)C(=O)N[C@@H](CCC(=O)O)C(=O)N[C@@H](CO)C(=O)N[C@@H](CCCNC(=N)N)C(=O)N[C@@H](CCCNC(=N)N)C(=O)N[C@@H](C)C(=O)N[C@@H](CCCNC(=N)N)C(=O)N[C@@H](CC(=O)O)C(=O)N[C@@H](Cc1ccccc1)C(=O)N[C@H](C(=O)N[C@@H](CCC(N)=O)C(=O)N[C@@H](Cc1c[nH]c2ccccc12)C(=O)N[C@@H](CC(C)C)C(=O)N[C@@H](CC(C)C)C(=O)N[C@@H](CCCCNC(=O)CNC(=O)[C@H](CO)NC(=O)[C@H](CCC(=O)O)NC(=O)CNC(=O)[C@H](CO)NC(=O)CC[C@H](NC(=O)CC[C@H](NC(=O)CCCCCCCCCCCCCCCCC(=O)O)C(=O)O)C(=O)O)C(=O)N[C@H](C(N)=O)[C@@H](C)O)C(C)C` [Example 37, N^ε28-[2-[[(2S)-2-[[(2S)-4-carboxy-2-[[2-[[(2S)-2-[[(4S)-4-carboxy-4-[[(4S)-4-carboxy-4-(17-carboxyheptadecanoylamino)butanoyl]amino]butanoyl]amino]-3-hydroxypropanoyl]amino]acetyl]amino]butanoyl]amino]-3-hydroxypropanoyl]amino]acetyl]-[Aib2,His3,Leu10,Glu15, Arg20,Leu27,Lys28]-Glucagon amide] (I: H-H[Aib]HGTFTSDLSKYLESRRARDFVQWLLKT-NH2 / II: {C18 diacid-γGlu-γGlu}-SGESG; amide I:28-II:C; N-terminus assumed), for which the concentration for half-maximal inhibition (IC50) is 0.2 nM.

With `CC(C)C[C@H](NC(=O)[C@H](Cc1ccc(O)cc1)NC(=O)[C@H](CCCCN)NC(=O)[C@H](CO)NC(=O)[C@H](CC(C)C)NC(=O)[C@H](CC(=O)O)NC(=O)[C@H](CO)NC(=O)[C@@H](NC(=O)[C@H](Cc1ccccc1)NC(=O)[C@@H](NC(=O)CNC(=O)[C@H](CCC(N)=O)NC(=O)C(C)(C)NC(=O)[C@@H](N)Cc1c[nH]cn1)[C@@H](C)O)[C@@H](C)O)C(=O)N[C@@H](CCC(=O)O)C(=O)N[C@@H](CO)C(=O)N[C@@H](CCCCN)C(=O)N[C@@H](CCCNC(=N)N)C(=O)N[C@@H](C)C(=O)N[C@@H](CCCNC(=N)N)C(=O)N[C@@H](CCC(=O)O)C(=O)N[C@@H](Cc1ccccc1)C(=O)N[C@H](C(=O)N[C@@H](CCC(N)=O)C(=O)N[C@@H](Cc1c[nH]c2ccccc12)C(=O)N[C@@H](CC(C)C)C(=O)N[C@@H](CC(C)C)C(=O)N[C@@H](CCCCNC(=O)CC[C@H](NC(=O)CC[C@H](NC(=O)[C@H](CO)NC(=O)[C@H](CCC(=O)O)NC(=O)[C@H](CO)NC(=O)CC[C@H](NC(=O)CC[C@H](NC(=O)CCCCCCCCCCCCCCCCC(=O)O)C(=O)O)C(=O)O)C(=O)O)C(=O)O)C(=O)N[C@H](C(N)=O)[C@@H](C)O)C(C)C` [Example 52] (H-H[Aib]QGTFTSDLSKYLESKRAREFVQWLLK([γGlu-γGlu-Ser-Glu-Ser-γGlu-γGlu-C18 diacid])T-NH2; N-terminus assumed), the half-maximal inhibitory concentration (IC50) turned out to be 0.2 nM. As for `CC(C)C[C@H](NC(=O)[C@H](Cc1ccc(O)cc1)NC(=O)[C@H](CCCNC(=N)N)NC(=O)[C@H](CO)NC(=O)[C@H](CC(C)C)NC(=O)[C@H](CC(=O)O)NC(=O)[C@H](CO)NC(=O)[C@@H](NC(=O)[C@H](Cc1ccccc1)NC(=O)[C@@H](NC(=O)CNC(=O)[C@H](CCC(N)=O)NC(=O)C1(NC(=O)[C@@H](N)Cc2c[nH]cn2)CCC1)[C@@H](C)O)[C@@H](C)O)C(=O)N[C@@H](CCC(=O)O)C(=O)N[C@@H](CO)C(=O)N[C@@H](CCCNC(=N)N)C(=O)N[C@@H](CCCNC(=N)N)C(=O)N[C@@H](C)C(=O)N[C@@H](CCCNC(=N)N)C(=O)N[C@@H](CCC(=O)O)C(=O)N[C@@H](Cc1ccccc1)C(=O)N[C@H](C(=O)N[C@@H](CCC(N)=O)C(=O)N[C@@H](Cc1c[nH]c2ccccc12)C(=O)N[C@@H](CC(C)C)C(=O)N[C@@H](CC(C)C)C(=O)N[C@@H](CCCCNC(=O)CC[C@H](NC(=O)CC[C@H](NC(=O)COCCOCCNC(=O)COCCOCCNC(=O)CC[C@H](NC(=O)CC[C@H](NC(=O)CCCCCCCCCCCCCCCCC(=O)O)C(=O)O)C(=O)O)C(=O)O)C(=O)O)C(=O)N[C@H](C(N)=O)[C@@H](C)O)C(C)C` [Example 59, N^ε28-[(4S)-4-carboxy-4-[[(4S)-4-carboxy-4-[[2-[2-[2-[[2-[2-[2-[[(4S)-4-carboxy-4-[[(4S)-4-carboxy-4-(17-carboxyheptadecanoylamino)butanoyl]amino]butanoyl]amino]ethoxy]ethoxy]acetyl]amino]ethoxy]ethoxy]acetyl]amino]butanoyl]amino]butanoyl]-[Acb2,Leu10,Arg12,Glu15,Arg20,Glu21,Leu27,Lys28]-Glucagon amide] (H-H[Ac4c]QGTFTSDLSRYLESRRAREFVQWLLK([γGlu-γGlu-AEEA-AEEA-γGlu-γGlu-C18 diacid])T-NH2; N-terminus assumed), the figure is 0.2 nM.
